Assays:
[1] = In vitro release of NMS samples (USP II paddle method, PBS pH 7.8); assay type: physicochemical; settings: PBS pH 7.8, 37 °C
Method: (§1) Dissolution studies of samples were carried out according to a USP II paddle method at 37 °C with a stirrer rotation speed of 50 rpm in a dissolution apparatus (ZRD6-B, Shanghai Huanghai Medicament Test Instrument Factory, Shanghai, China). […] At predetermined time intervals, 5 ml samples were taken out and replaced by fresh medium immediately. Then, samples were passed through a 0.22 μm membrane filter and were transferred to UV/Vis analysis at the wavelength of 240 nm.
Samples containing 5 mg NMS were put into 250 ml phosphate buffer solutions (PBS, pH 7.8) at 37 °C.

[2] = test system: mouse ear swelling caused by xylene; assay: Mouse ear swelling test (MEST); assay type: in vivo, Kunming mice; settings: intragastric, 0.6 mg NMS, 50 min
Method: The mouse ear swelling test was developed to further evaluate the swelling inhibition potential of NMS/CMS. In detail, 16 male Kunming mice weighing 18–22 g were randomly divided into four groups (n = 4): NS group (negative control group), NMS group (positive control group), NMS/CMS group ([…]) and NMS/MCM41 group ([…]). Samples containing 0.6 mg NMS were suspended in normal saline and imposed to mice in all groups by intragastric administration. Mice in NS group were exposed to normal saline only. At 30 min after administration, 0.1 ml xylene was applied on each side of the left ear of mice, and the right ear regarded as a reference was left untreated. After 50 min, mice were executed, both ears were removed, and tissues with diameter of 0.6 cm were cut off by hole punch. The weight of the tissues cut from left and right ears was measured by electronic scale. The repression rate and the degree of ear swelling were, respectively, expressed as: (3) Repression rate (%)=(wL-wR)negative control-(wL-wR)test/(wL-wR)negative control-(wL-wR)positive control×100 (4) Swelling rate (%)=wL-wR/wR×100 where w L is the weight of tissue cut from the left ear and w R is the weight of tissue cut from the right ear of the same mice.

[3] = In vitro release of DZP samples (USP II paddle method); assay type: physicochemical; settings: deionized water, 37 °C, 50 rpm
Method: as §1

| SMILES | accumulative release percentage within 24 h [1] | ear swelling rate [2] | cumulative release percentage within 24 h [3] |
| --- | --- | --- | --- |
| CS(=O)(=O)Nc1ccc([N+](=O)[O-])cc1Oc1ccccc1 [NMS, Nimesulide] | 93.1% | 32.4% | – |
| CN1C(=O)CN=C(c2ccccc2)c2cc(Cl)ccc21 [DZP, Diazepam] | – | – | 66.75% |
